What all share (assay type): biochemical
The target in one experiment is T1, GST A2-2 (Homo sapiens, UniProt P09210).
T1 construct: gene GSTA2; homodimer purified from human liver cytosol
T1 sequence (P09210 2-222): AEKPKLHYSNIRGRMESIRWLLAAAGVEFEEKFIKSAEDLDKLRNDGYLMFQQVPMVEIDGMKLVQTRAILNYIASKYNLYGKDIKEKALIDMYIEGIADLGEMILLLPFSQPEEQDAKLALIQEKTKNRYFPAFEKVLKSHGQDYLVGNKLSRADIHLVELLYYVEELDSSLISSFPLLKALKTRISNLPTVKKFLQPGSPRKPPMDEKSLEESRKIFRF
Kind of experiment: inhibition of CDNB conjugation activity (Dixon and Hanes plots).

In a further experiment the target is T2, GST M1a-1a (Homo sapiens, UniProt P09488).
T2 construct: gene GSTM1; homodimer purified from human liver cytosol
T2 sequence (P09488 2-218): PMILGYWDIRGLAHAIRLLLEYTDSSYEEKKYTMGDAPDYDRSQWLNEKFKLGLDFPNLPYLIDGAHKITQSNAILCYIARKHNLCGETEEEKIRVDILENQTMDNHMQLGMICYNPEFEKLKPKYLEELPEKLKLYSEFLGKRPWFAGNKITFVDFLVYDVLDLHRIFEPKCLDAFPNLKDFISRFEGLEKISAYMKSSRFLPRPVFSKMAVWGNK
Kind of experiment: inhibition of CDNB conjugation activity.

A further experiment addresses T3, GST P1-1 (Homo sapiens, UniProt P09211).
T3 construct: gene GSTP1; homodimer purified from human kidney cytosol
Kind of experiment: inhibition of CDNB conjugation activity.

A further experiment concerns the target T4, GST A1-1 (Homo sapiens, UniProt P08263).
T4 construct: gene GSTA1; homodimer purified from human liver cytosol
T4 sequence (P08263 2-222): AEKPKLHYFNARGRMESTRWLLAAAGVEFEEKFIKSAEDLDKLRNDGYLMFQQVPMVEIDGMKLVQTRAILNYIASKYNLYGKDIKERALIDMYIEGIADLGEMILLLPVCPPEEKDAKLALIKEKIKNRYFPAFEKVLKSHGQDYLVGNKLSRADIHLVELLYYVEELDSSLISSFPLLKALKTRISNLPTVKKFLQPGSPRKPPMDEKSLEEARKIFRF
Kind of experiment: inhibition of CDNB conjugation activity (Dixon and Hanes plots). The text has this: inhibition of CDNB conjugation activity (Dixon and Hanes plots) on GST A1-1 | CHBSG was a pure competitive inhibitor of the activity of GSTs A1-1 and A2-2 towards 1-chloro-2,4-dinitrobenzene

SMILES strings stand for the structures.

T3 sequence (P09211 2-210): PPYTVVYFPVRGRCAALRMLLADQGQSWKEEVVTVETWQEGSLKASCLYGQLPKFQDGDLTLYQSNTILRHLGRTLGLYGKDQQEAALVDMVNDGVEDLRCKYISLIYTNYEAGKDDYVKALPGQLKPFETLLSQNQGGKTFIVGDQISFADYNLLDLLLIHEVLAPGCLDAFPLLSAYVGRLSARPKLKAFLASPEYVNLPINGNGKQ

On to `N[C@@H](CCC(=O)N[C@@H](CSCCN(CCCl)c1ccc(CCCC(=O)O)cc1)C(=O)NCC(=O)O)C(=O)O` [CHBSG], for which the Ki – broadly, a measure of affinity in units of concentration, obtained from inhibition or displacement – on GST A2-2 is 1.2 µM; on GST A1-1, 1.3 µM. Further, the “inhibition of CDNB conjugation activity” value at GST M1a-1a and against GST P1-1 was more than 10 µM in each case.
